Data on twelve molecules can be found in patent US7494998B2, “Benzisoxazole piperazine compounds and methods of use thereof” (Hypnion, Inc., priority 2005, dated 2009).

Molecules are shown by their SMILES.

In one assay the test system is male Wistar rats. The experiment in a line: Sleep-wakefulness monitoring (EEG/EMG, SCORE-2004) in rats after oral treatment at CT-18. Type of assay: in vivo, rat. The conditions noted are these: for MAXIMUM NREM SLEEP CUMULATION 3 mg/kg / LONGEST UNINTERRUPTED SLEEP BOUT 3 mg/kg: 3 mg/kg oral at CT-18; for MAXIMUM NREM SLEEP CUMULATION 10 mg/kg / LONGEST UNINTERRUPTED SLEEP BOUT 10 mg/kg: 10 mg/kg oral at CT-18; for MAXIMUM NREM SLEEP CUMULATION 30 mg/kg / LONGEST UNINTERRUPTED SLEEP BOUT 30 mg/kg: 30 mg/kg oral at CT-18. Here is the method:
Sleep-wakefulness, locomotor activity and body temperature are monitored in male Wistar rats treated with a test compound (i.e., benzisoxazole analog) initially at a concentration of 10 mg/kg. Higher and lower doses are assayed for select compounds (e.g., as high as 45 mg/kg, and as low as necessary to establish a no-effect dose). Treatments are administered at CT-18, the peak of the activity dominated period (6 hours after lights-off), and produced soporific (sleep-inducing) effects characterized by increased non-REM sleep time, increased sleep continuity, but without evidence of REM sleep inhibition or rebound insomnia.
Sleep-wakefulness, locomotor activity and body temperature were monitored in vivo with various compounds of the invention. Adult, male Wistar rats (250 g at time of surgery, Charles River Laboratories, Wilmington Mass.) were anesthetized (2% isoflourane in medical grade oxygen) and surgically prepared with a cranial implant to permit chronic electro-encephalogram (EEG) and electromyogram (EMG) recording. Body temperature and locomotor activity were monitored via a miniature transmitter (Mini-Mitter, Bend, Oreg.) surgically placed in the abdomen. The cranial implant consisted of stainless steel screws (two frontal [+3.2 AP from bregma, ±2.0 ML] and two occipital [−6.9 AP, ±5.5 ML]) for EEG recording. Two Teflon®-coated stainless steel wires were positioned under the nuchal trapezoid muscles for EMG recording. All leads were soldered to a miniature connector prior to surgery, and gas sterilized in ethylene oxide. The implant assembly was affixed to the skull with dental acrylic. A minimum of three weeks was allowed for surgical recovery.
Each rat was permanently housed in its own individual recording cage located within separate, ventilated compartments of custom-designed stainless steel cabinets. Each cage was enhanced with a filter-top riser and low-torque swivel-commutator. Food and water were available ad libitum. A 24-hr light-dark cycle (12 hours light, 12 hours dark) was maintained throughout the study. Animals were undisturbed for at least 48 hours before and after treatments.
Sleep and wakefulness were determined using “SCORE-2004™” (Hypnion, Worcester, Mass.)—an internet-based sleep-wake and physiological monitoring system. The system monitored amplified EEG (bandpass 1-30 Hz), integrated EMG (bandpass 10-100 Hz), body temperature and non-specific locomotor activity (LMA) via telemetry, and drinking activity, continuously and simultaneously. Arousal states were classified on-line as non-REM (NREM) sleep, REM sleep, wake, or theta-dominated wake every 10 seconds. Total drinking and locomotor activity counts, and body temperature were quantitiated and recorded each minute, using EEG feature extraction and pattern-matching algorithms. […] The classification algorithm used individually-taught EEG-arousal-state templates, plus EMG criteria to differentiate REM sleep from theta-dominated wakefulness, plus behavior-dependent contextual rules (e.g., if the animal was drinking, it is awake). Drinking and locomotor activity intensity (LMA) were recorded every 10 seconds, while body temperature was recorded each minute. Locomotor activity was detected by a telemetry receiver (Mini-Mitter) beneath the cage. Telemetry measures (LMA and body temperature) were not part of the scoring algorithm; thus, sleep-scoring and telemetry data were independent measures.
Compounds were administered at CT-18, the peak of the activity-dominated period, sufficient time was allowed to view the time course of the treatment effect before lights-on (6 hours post-treatment). Compounds were suspended in sterile 0.25% or 0.5% methylcellulose (1-2 ml/kg). Treatments were administered orally as a bolus.
A parallel group study design was employed. […]

Assay [1] has as its target T1, human recombinant M1 expressed in CHO cells (Homo sapiens, UniProt P11229).
T1 construct: expressed in transfected cells; host or cells: CHO cells
T1 sequence (P11229 1-460): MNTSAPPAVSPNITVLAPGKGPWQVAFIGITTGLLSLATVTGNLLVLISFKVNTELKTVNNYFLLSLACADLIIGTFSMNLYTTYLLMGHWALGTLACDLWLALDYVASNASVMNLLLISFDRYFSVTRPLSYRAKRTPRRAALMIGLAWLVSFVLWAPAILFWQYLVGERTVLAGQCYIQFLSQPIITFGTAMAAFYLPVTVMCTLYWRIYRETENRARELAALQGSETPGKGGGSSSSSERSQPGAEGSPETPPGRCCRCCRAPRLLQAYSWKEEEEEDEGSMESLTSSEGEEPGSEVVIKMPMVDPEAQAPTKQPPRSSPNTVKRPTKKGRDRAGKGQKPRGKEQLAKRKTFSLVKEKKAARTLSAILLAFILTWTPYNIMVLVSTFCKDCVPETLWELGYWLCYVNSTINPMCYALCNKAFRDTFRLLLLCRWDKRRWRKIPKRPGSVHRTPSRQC
The conditions noted are these: reference compounds of the M1 assay; read-out: Ki (M1 binding assay, reference compounds); cited from earlier work.

Setting [2] is: cumulative nonREM sleep defined in minutes, in min.
Setting [3] is: sleep bout length defined in minutes.

On to `O=C(O)C1(CN2CCN(c3noc4ccccc34)CC2)CC1` [Compound 5], for which, in the assay on male Wistar rats (setting [2]), the “MAXIMUM NREM SLEEP CUMULATION 3 mg/kg” value is 40, the “MAXIMUM NREM SLEEP CUMULATION 10 mg/kg” value is listed as 37 and the “MAXIMUM NREM SLEEP CUMULATION 30 mg/kg” value is 45. For the same molecule, in the assay on male Wistar rats (setting [3]), the “LONGEST UNINTERRUPTED SLEEP BOUT 3 mg/kg” value was found to be 3.0, the “LONGEST UNINTERRUPTED SLEEP BOUT 10 mg/kg” value came to 5.1 and the “LONGEST UNINTERRUPTED SLEEP BOUT 30 mg/kg” value is 7.2.
Regarding `CC(C)(CN1CCN(c2noc3ccccc23)CC1)C(=O)O` [Compound 1], in the assay with male Wistar rats (1 mg/kg oral at CT-18, cumulative nonREM sleep defined in minutes, in min), the “MAXIMUM NREM SLEEP CUMULATION 1 mg/kg” value was 20. For the same molecule, the “LONGEST UNINTERRUPTED SLEEP BOUT 1 mg/kg” value with male Wistar rats (1 mg/kg oral at CT-18, sleep bout length defined in minutes) turned out to be 6.0. In the assay with male Wistar rats (setting [2]), the “MAXIMUM NREM SLEEP CUMULATION 3 mg/kg” value was determined as 16, the “MAXIMUM NREM SLEEP CUMULATION 10 mg/kg” value is 26 and the “MAXIMUM NREM SLEEP CUMULATION 30 mg/kg” value was found to be 50. Also, in the assay with male Wistar rats (setting [3]), the “LONGEST UNINTERRUPTED SLEEP BOUT 3 mg/kg” value amounted to 9.3, the “LONGEST UNINTERRUPTED SLEEP BOUT 10 mg/kg” value is on record as 14.4 and the “LONGEST UNINTERRUPTED SLEEP BOUT 30 mg/kg” value came to 16.2.
For the molecule `Cc1ccc2c(N3CCN(CC(C)(C)C(=O)O)CC3)noc2c1` [Compound 9], in the assay on male Wistar rats (setting [2]), the “MAXIMUM NREM SLEEP CUMULATION 3 mg/kg” value is reported as 24 and the “MAXIMUM NREM SLEEP CUMULATION 10 mg/kg” value came out at 29. Also, in the assay on male Wistar rats (setting [3]), the “LONGEST UNINTERRUPTED SLEEP BOUT 3 mg/kg” value is listed as 13.6 and the “LONGEST UNINTERRUPTED SLEEP BOUT 10 mg/kg” value is on record as 12.9.
Consider `CC(C)(CN1CCN(c2noc3ccccc23)CC1)C(=O)NS(C)(=O)=O` [Compound 3], for which, in the assay on male Wistar rats (setting [2]), the “MAXIMUM NREM SLEEP CUMULATION 10 mg/kg” value was 25 and the “MAXIMUM NREM SLEEP CUMULATION 30 mg/kg” value was determined as 27. Also, in the assay on male Wistar rats (setting [3]), the “LONGEST UNINTERRUPTED SLEEP BOUT 10 mg/kg” value came to 5.2 and the “LONGEST UNINTERRUPTED SLEEP BOUT 30 mg/kg” value amounted to 12.3.
Consider `O=C(O)CCN1CCN(c2noc3ccccc23)CC1` [Compound 4], for which the “MAXIMUM NREM SLEEP CUMULATION 10 mg/kg” value with male Wistar rats (setting [2]) was determined as 27. Further, the “LONGEST UNINTERRUPTED SLEEP BOUT 10 mg/kg” value with male Wistar rats (setting [3]) turned out to be 9.9.
Regarding `Cc1ccc2onc(N3CCN(CCC(=O)O)CC3)c2c1` [Compound 12], in the assay with male Wistar rats (setting [2]), the “MAXIMUM NREM SLEEP CUMULATION 10 mg/kg” value is listed as 16. For the same molecule, the “LONGEST UNINTERRUPTED SLEEP BOUT 10 mg/kg” value in the assay with male Wistar rats (setting [3]) stood at 7.3.
Consider `C[N+]1(C)CCC(OC(=O)C(c2ccccc2)c2ccccc2)CC1` [4-DAMP methiodide], for which the Ki in assay [1] was 0.27 nM.
With `Cc1ccc2onc(N3CCN(CCCC(=O)O)CC3)c2c1` [Compound 13], in the assay with male Wistar rats (setting [2]), the “MAXIMUM NREM SLEEP CUMULATION 10 mg/kg” value was 7. In addition, the “LONGEST UNINTERRUPTED SLEEP BOUT 10 mg/kg” value in the assay on male Wistar rats (setting [3]) is −5.6.
As for `Cc1ccc2onc(N3CCN(CC(C)(C)C(=O)O)CC3)c2c1` [Compound 8], in the assay with male Wistar rats (setting [2]), the “MAXIMUM NREM SLEEP CUMULATION 3 mg/kg” value is reported as 15, the “MAXIMUM NREM SLEEP CUMULATION 10 mg/kg” value turned out to be 29 and the “MAXIMUM NREM SLEEP CUMULATION 30 mg/kg” value came to 37. Further, in the assay with male Wistar rats (setting [3]), the “LONGEST UNINTERRUPTED SLEEP BOUT 3 mg/kg” value is 4.8, the “LONGEST UNINTERRUPTED SLEEP BOUT 10 mg/kg” value came out at 8.6 and the “LONGEST UNINTERRUPTED SLEEP BOUT 30 mg/kg” value is 14.3.
Regarding `CC(C)(CN1CCN(c2noc3ccc(F)cc23)CC1)C(=O)O` [Compound 6], in the assay with male Wistar rats (setting [2]), the “MAXIMUM NREM SLEEP CUMULATION 10 mg/kg” value turned out to be 18 and the “MAXIMUM NREM SLEEP CUMULATION 30 mg/kg” value is given as 26. In the assay on male Wistar rats (setting [3]), the “LONGEST UNINTERRUPTED SLEEP BOUT 10 mg/kg” value stood at 9.8 and the “LONGEST UNINTERRUPTED SLEEP BOUT 30 mg/kg” value is on record as 13.5.
With `COc1ccc2onc(N3CCN(CC(C)(C)C(=O)O)CC3)c2c1` [Compound 7], the “MAXIMUM NREM SLEEP CUMULATION 10 mg/kg” value in the assay on male Wistar rats (setting [2]) stood at 6. In addition, in the assay with male Wistar rats (setting [3]), the “LONGEST UNINTERRUPTED SLEEP BOUT 10 mg/kg” value is −2.5.
Regarding `O=C(O)CCCN1CCN(c2noc3ccccc23)CC1` [Compound 10], in the assay on male Wistar rats (setting [2]), the “MAXIMUM NREM SLEEP CUMULATION 10 mg/kg” value stood at 22 and the “MAXIMUM NREM SLEEP CUMULATION 30 mg/kg” value turned out to be 24. Besides, in the assay with male Wistar rats (setting [3]), the “LONGEST UNINTERRUPTED SLEEP BOUT 10 mg/kg” value is given as 10.7 and the “LONGEST UNINTERRUPTED SLEEP BOUT 30 mg/kg” value is on record as 9.9.
